The results in this text go back to EP0241395A2, “Sweeteners derived from n-phenylguanidinoacetic and n-phenylethananamidinacetic acids, and compositions containing such sweeteners” (UNIVERSITE CLAUDE BERNARD - LYON 1, priority 1986, dated 1987).

Data set [1] concerns groupe de huit goûteurs expérimentés. The data set can be described thus: Sweetening power judged by a panel of eight experienced tasters against a sucrose reference solution. The class given is in vivo. Particulars: weight basis; for Pouvoir édulcorant: Table II, relative to a 2 % sucrose solution; for pouvoir édulcorant, sur une base pondérale: approximate. In a few lines: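 Panel of eight experienced tasters compared aqueous solutions of compound at varying concentrations with a sucrose reference at 2 %, sometimes 5 % and 10 %. Sweetening power is the weight ratio of sucrose to compound at equal sweetness intensity, as judged by a majority of tasters, and depends on the reference concentration.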

Data set [2] is described as follows: Stability in solution at pH 3 and 70 °C, remaining compound determined by HPLC. The class given is physicochemical. Particulars: pH 3, phosphate buffer 1mM; for remaining at 168 h: 1 mm phosphate buffer, after seven days, read-out: composé restant. The procedure: Les agents édulcorants de la présente invention sont généralement stables. La stabilité est déterminée à pH 3 en solution dans un tampon phosphate 1mM à 70 °C. La concentration du composé restant est déterminée par chromatographie liquide haute pression (HPLC). Par exemple, après six jours dans de telles conditions, on retrouve encore la moitié du composé de l'exemple 14 dans lequel X4 est CN, X3, X5, R1, R3 et R4 sont H, A est N, et R2 est (S) CH (CH3) C6H5. On améliore la stabilité lorsque l'on remplace l'atome d'hydrogène de R1 par CH3. Ainsi, après sept jours dans les mêmes conditions , on retrouve encore 88 % du composé de l'exemple 31 dans lequel X3 et X5 sont Cl, X4, R3 et R4 sont H, A est N, R1 est CH3, et R2 est CH2C6H5. De la même manière, toujours après sept jours et dans les mêmes conditions, on retrouve 86 % du composé de l'exemple 33 dans lequel X4 est CN, X3, X5, R3 et R4 sont H, A est N, R1 est CH3, et R2 est CH2C6H5.

Where [3] appears, read: by comparison with a 2 % sucrose solution.
Setting [4] is: by comparison with a 5 % sucrose solution.
The mark [5] stands for this setting: by comparison with a 10 % sucrose solution.

Take `CN(Cc1ccccc1)C(=Nc1ccc(C#N)cc1)NCC(=O)O` [Exemple 33, acide N-[N-méthyl-N-benzylamino(4-cyanophénylimino)méthyl]-2-aminoéthanoique]: in data set [1], the Pouvoir édulcorant was 3000. Also, the results for the “pouvoir édulcorant, sur une base pondérale” value in data set [1] (setting [3]), in data set [1] (setting [4]) and in data set [1] (setting [5]) were ~3 000 fois celui du saccharose, around 1800 times sucrose and ~1 200 fois celui du saccharose, respectively. Also, the remaining at 168 h in data set [2] was 86%.

Turning to `C[C@H](NC(=Nc1ccc(C#N)cc1)NCC(=O)O)c1ccccc1` [Exemple 14, acide N-[N-(S)-α-méthylbenzylamino (4-cyanophénylimino)méthyl]-2-aminoéthanoïque], the Pouvoir édulcorant in data set [1] was 28000. For the same molecule, the figures for the “pouvoir édulcorant, sur une base pondérale” value in data set [1] (setting [3]), in data set [1] (setting [4]) and in data set [1] (setting [5]) were ~28 000 fois celui du saccharose, ~20 000 fois celui du saccharose and ~10 000 fois celui du saccharose, respectively. Further, the composé restant result in data set [2] (after six days) is listed as “la moitié”.

In data set [1], `CN(Cc1ccccc1)C(=Nc1cc(Cl)cc(Cl)c1)NCC(=O)O` [Exemple 31, acide N-[N-méthyl-N-benzylamino (3,5-dichlorophénylimino)méthyl]-2-aminoéthanoïque] gave a Pouvoir édulcorant of 20000. In addition, the “pouvoir édulcorant, sur une base pondérale” value in data set [1] (setting [3]) is listed as ~20 000 fois celui du saccharose. The remaining at 168 h in data set [2] amounted to 88%.
